Measurements reported in US11535606B2, “Substituted quinoline-8-carbonitrile derivatives with androgen receptor degradation activity and uses thereof” (ACCUTAR BIOTECHNOLOGY INC., priority 2019, dated 2022).
Positions count from the first letter of the chain named.

Key:
Assay type in all cases: cell-based
Conditions in all cases: 24 hours after administration, DC50 = concentration needed for 50% target protein degradation
androgen receptor (AR) [1] = target: T1, androgen receptor (AR) (Homo sapiens, UniProt P10275, T878A); experiment: AR degradation activity in LNCAP cells (Western blot)
T1 construct: endogenous in cells; host or cells: LNCAP
T1 sequence (P10275 1-920 T878A): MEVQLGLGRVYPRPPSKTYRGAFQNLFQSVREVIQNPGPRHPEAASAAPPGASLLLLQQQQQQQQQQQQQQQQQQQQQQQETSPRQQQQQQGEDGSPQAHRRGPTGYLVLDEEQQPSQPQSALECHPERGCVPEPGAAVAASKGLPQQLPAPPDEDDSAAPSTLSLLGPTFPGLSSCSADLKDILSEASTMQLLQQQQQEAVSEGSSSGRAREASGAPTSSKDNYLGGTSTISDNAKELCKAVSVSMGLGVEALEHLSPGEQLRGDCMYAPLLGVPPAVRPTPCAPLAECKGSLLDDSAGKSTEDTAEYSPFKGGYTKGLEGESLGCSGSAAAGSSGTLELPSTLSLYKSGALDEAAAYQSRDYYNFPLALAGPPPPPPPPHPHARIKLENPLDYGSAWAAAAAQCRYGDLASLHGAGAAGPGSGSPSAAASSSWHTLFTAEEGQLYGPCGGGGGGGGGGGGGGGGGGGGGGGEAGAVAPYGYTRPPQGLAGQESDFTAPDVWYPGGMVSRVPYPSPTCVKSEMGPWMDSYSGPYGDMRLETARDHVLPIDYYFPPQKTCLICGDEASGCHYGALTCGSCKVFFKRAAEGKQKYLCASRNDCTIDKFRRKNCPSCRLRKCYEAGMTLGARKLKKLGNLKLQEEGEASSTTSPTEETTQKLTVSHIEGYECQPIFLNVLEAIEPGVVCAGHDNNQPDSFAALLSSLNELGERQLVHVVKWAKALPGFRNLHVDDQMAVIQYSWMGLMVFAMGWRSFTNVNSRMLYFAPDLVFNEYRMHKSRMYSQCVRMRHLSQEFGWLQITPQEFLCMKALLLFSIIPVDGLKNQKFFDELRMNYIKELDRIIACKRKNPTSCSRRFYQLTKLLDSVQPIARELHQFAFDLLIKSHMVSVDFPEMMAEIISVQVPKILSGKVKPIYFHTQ
Method: (§1) LNCAP, VCAP and 22Rv1 cells were plated in 24-well plates at 1.5×10E5 cells/well in the RPMI growth medium containing 10% FBS and 1% Penicillin Streptomycin, and then incubated at 37° C. overnight. The following day, the test compound was administered to the cells by using 1000× compound stock solution prepared in DMSO at various concentrations. After administration of the compound, the cells were then incubated at 37° C. for 24 hours. Upon completion, the cells were washed with PBS and protein was collected in Laemmli sample buffer (1×; VWR International). Proteins in cell lysate were separated by SDS-PAGE and transferred to Odyssey nitrocellulose membranes (Licor) with Iblot® dry blotting transfer system (ThermoFisher). Nonspecific binding was blocked by incubating membranes with Intercept Blocking Buffer (Licor) for 1 hour at room temperature with gentle shaking. The membranes were then incubated overnight at 4° C. with Primary antibodies rabbit anti-AR (1:1,000, Cell Signaling, 5153) and mouse anti-GAPDH (1:5,000, Santa Cruz Biotechnology, sc-47724) diluted in Intercept Blocking Buffer containing 0.1% Tween 20. After washing 3 times with TBS-T, the membranes were incubated with IRDye® 800CW goat anti-mouse IgG (1:20,000, Licor) or IRDye® 800CW goat anti-rabbit IgG (1:20,000, Licor) for 1 hour. After TBS-T washes, membranes were rinsed in TBS and scanned on Odyssey® CLx Imaging System (Licor). The bands were quantified using Image Studio™ Software (Licor).
(§2) Table 4 summarizes the androgen receptor (AR) degradative activity of exemplary compounds in LNCAP, VCAP and 22Rv1 cell lines 24 hours after administration. DC50: compound concentration needed for 50% target protein degradation.

androgen receptor (AR) [2] = experiment: AR degradation activity in 22Rv1 cells (Western blot)
Method: as §1, §2

androgen receptor (AR) [3] = target: T2, androgen receptor (AR) (Homo sapiens, UniProt P10275); experiment: AR degradation activity in VCAP cells (Western blot)
T2 construct: endogenous in cells; host or cells: VCAP
T2 sequence (P10275 1-920): T1 sequence (P10275 1-920 T878A) with A878T
Method: as §1, §2

Measured: DC50

N#Cc1ccc(O[C@H]2CC[C@H](NC(=O)c3ccc(N4CCC(CN5CCN(c6ccc7c(c6)CN([C@H]6CCC(=O)NC6=O)C7=O)CC5)CC4)nc3)CC2)c2cccnc12 [Compound 3-29, trans-N-(4-((8-cyanoquinolin-5-yl)oxy)cyclohexyl)-6-(4-((4-(2-((S)-2,6-dioxopiperidin-3-yl)-1-oxoisoindolin-5-yl)piperazin-1-yl)methyl)piperidin-1-yl)nicotinamide]
< 10 nM: all assays above

N#Cc1ccc(O[C@H]2CC[C@H](NC(=O)c3ccc(N4CCC(CN5CCN(c6ccc7c(c6)CN([C@H]6CCC(=O)NC6=O)C7=O)CC5)CC4)c(F)c3)CC2)c2cccnc12 [Compound 3-31, trans-N-(4-((8-cyanoquinolin-5-yl)oxy)cyclohexyl)-4-(4-((4-(2-((S)-2,6-dioxopiperidin-3-yl)-1-oxoisoindolin-5-yl)piperazin-1-yl)methyl)piperidin-1-yl)-3-fluorobenzamide]
< 10 nM: all assays above

N#Cc1ccc(OC2CCC(NC(=O)c3ccc(N4CCC(CN5CCN(c6cc7c(cc6F)C(=O)N(C6CCC(=O)NC6=O)C7=O)CC5)CC4)nn3)CC2)c2cccnc12 (stereo not drawn) [Compound 3-36]
< 10 nM: all assays above
